± gives the uncertainty stated by the source.
Experiment: xn = mol fraction of the nth substance listed

CCCCOCCO + CCCCCCC
viscosity [mPa·s], 101 kPa
Settings	303.15 K	313.15 K
x1 = 0.0365	0.407 ± 0.006	0.364 ± 0.005
x1 = 0.1077	0.484 ± 0.006	0.426 ± 0.006
x1 = 0.2126	0.626 ± 0.008	0.534 ± 0.007
x1 = 0.316	0.799 ± 0.009	0.661 ± 0.008
x1 = 0.417	0.987 ± 0.011	0.797 ± 0.009
x1 = 0.5114	1.177 ± 0.012	0.941 ± 0.01
x1 = 0.6155	1.411 ± 0.014	1.116 ± 0.012
x1 = 0.7469	1.741 ± 0.017	1.359 ± 0.014
x1 = 0.845	2.011 ± 0.019	1.55 ± 0.016
x1 = 0.9057	2.162 ± 0.02	1.654 ± 0.017
x1 = 0.9663	2.306 ± 0.021	1.784 ± 0.017

C[N+](C)(C)C.[OH-] + CS(C)=O
viscosity [mPa·s], 100 kPa
Settings	298.15 K	303.15 K	308.15 K	313.15 K
x1 = 0.0177	2.05 ± 0.04	1.87 ± 0.04	1.73 ± 0.04	1.63 ± 0.04
x1 = 0.0538	2.18 ± 0.05	2.01 ± 0.04	1.87 ± 0.04	1.77 ± 0.04
x1 = 0.091	2.24 ± 0.05	2.07 ± 0.04	1.94 ± 0.04	1.86 ± 0.04
x1 = 0.1294	2.34 ± 0.05	2.18 ± 0.05	2.06 ± 0.04	1.98 ± 0.04
x1 = 0.1691	2.44 ± 0.05	2.3 ± 0.05	2.18 ± 0.05	2.1 ± 0.05
x1 = 0.2101	2.55 ± 0.05	2.42 ± 0.05	2.3 ± 0.05	2.23 ± 0.05
x1 = 0.2314	2.61 ± 0.06	2.48 ± 0.05	2.36 ± 0.05	2.3 ± 0.05
x1 = 0.2961	2.76 ± 0.06	2.64 ± 0.06	2.54 ± 0.05	2.48 ± 0.05
x1 = 0.3645	2.9 ± 0.06	2.81 ± 0.06	2.71 ± 0.06	2.65 ± 0.06
x1 = 0.4366	3.04 ± 0.06	2.94 ± 0.06	2.86 ± 0.06	2.81 ± 0.06
x1 = 0.4868	3.12 ± 0.07	3.03 ± 0.06	2.95 ± 0.06	2.91 ± 0.06
x1 = 0.5388	3.18 ± 0.07	3.1 ± 0.07	3.02 ± 0.06	2.98 ± 0.06
x1 = 0.6206	3.25 ± 0.07	3.17 ± 0.07	3.09 ± 0.07	3.07 ± 0.07
x1 = 0.7071	3.26 ± 0.07	3.2 ± 0.07	3.12 ± 0.07	3.1 ± 0.07
x1 = 0.7677	3.23 ± 0.07	3.18 ± 0.07	3.1 ± 0.07	3.06 ± 0.06
x1 = 0.8307	3.15 ± 0.07	3.12 ± 0.07	3.05 ± 0.06	3.02 ± 0.06
x1 = 0.8963	3.03 ± 0.06	3.02 ± 0.06	2.94 ± 0.06	2.9 ± 0.06
x1 = 0.9647	2.86 ± 0.06	2.84 ± 0.06	2.76 ± 0.06	2.71 ± 0.06

CCCCOCCO + CCCCCC
viscosity [mPa·s], 101 kPa
Settings	303.15 K	313.15 K
x1 = 0.0327	0.292 ± 0.005	0.258 ± 0.004
x1 = 0.1014	0.354 ± 0.005	0.31 ± 0.005
x1 = 0.1974	0.456 ± 0.006	0.396 ± 0.006
x1 = 0.2974	0.587 ± 0.007	0.506 ± 0.006
x1 = 0.395	0.741 ± 0.008	0.634 ± 0.007
x1 = 0.4968	0.93 ± 0.01	0.787 ± 0.009
x1 = 0.5957	1.148 ± 0.011	0.956 ± 0.01
x1 = 0.7323	1.507 ± 0.014	1.23 ± 0.012
x1 = 0.8316	1.793 ± 0.016	1.458 ± 0.014
x1 = 0.8992	2.025 ± 0.018	1.634 ± 0.015
x1 = 0.9658	2.271 ± 0.02	1.79 ± 0.017

c1ccc2c(c1)CCCC2 + C1CCCCC1
298.15 K, 101 kPa
Settings	viscosity [mPa·s]
x1 = 0.1649	0.9811 ± 0.013
x1 = 0.3447	1.127 ± 0.015
x1 = 0.5442	1.324 ± 0.017
x1 = 0.7597	1.619 ± 0.021

CCCCCCBr + C1COCCO1
303.15 K, 101.3 kPa
Settings	viscosity [mPa·s]
x2 = 0.1105	0.8848 ± 0.0056
x2 = 0.3021	0.8777 ± 0.0056
x2 = 0.4972	0.9007 ± 0.0057
x2 = 0.698	0.947 ± 0.006
x2 = 0.8997	1.03 ± 0.0065

C[N+](C)(C)C.[OH-] + O
viscosity [mPa·s], 101 kPa
Settings	x1 = 0.00504	x1 = 0.0103	x1 = 0.02149	x1 = 0.0337	x1 = 0.04708	x1 = 0.06181	x1 = 0.07809
298.15 K	0.9677 ± 0.017	1.119 ± 0.02	1.278 ± 0.023	1.627 ± 0.03	1.978 ± 0.038	3.087 ± 0.06	4.216 ± 0.084
303.15 K	0.8674 ± 0.015	1.007 ± 0.018	1.148 ± 0.021	1.39 ± 0.026	1.751 ± 0.033	2.66 ± 0.051	3.571 ± 0.071
313.15 K	0.7118 ± 0.013	0.818 ± 0.015	0.9314 ± 0.017	1.158 ± 0.021	1.399 ± 0.026	2.031 ± 0.039	2.665 ± 0.053
323.15 K	0.5982 ± 0.011	0.678 ± 0.012	0.7738 ± 0.014	0.971 ± 0.018	1.148 ± 0.022	1.587 ± 0.031	2.067 ± 0.041

Reference: the CheMixHub viscosity set
